In brackets after ≈: the same amount, converted by molar mass. Where two headings read alike, the source gives them in different places.
How the values were obtained:
Assay type in all cases: cell-based
[1] = system: Penicillium chrysogenum (Pc); assay: Minimum inhibitory concentration (MIC) in malt yeast agar, Penicillium chrysogenum
Procedure, shortened: (§1)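 Agar dilution: test compound from a 1% acetone/water solution was mixed into malt yeast agar (pH 5.5) at 48 °C to final […], 25, 10, 5, 2.5, 1.0 and zero ppm. Plates dried 24 h, were replicator-inoculated with 1:9 saline-diluted suspensions of 7-day 30 °C cultures, and were read after 72 h (fungi) or 48 h (yeast) at 30 °C.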

Fusarium oxysporum (Fo) = assay: Minimum inhibitory concentration (MIC) in malt yeast agar, Fusarium oxysporum
Procedure, shortened: as §1

[2] = system: Saccharomyces cerevisiae (Sc); assay: Minimum inhibitory concentration (MIC) in malt yeast agar, Saccharomyces cerevisiae; settings: pH 5.5, malt yeast agar, 30° C., 48 hours for yeast, read-out: Minimum Inhibitory Concentration, SC
Procedure, shortened: (§2)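 Growth is scored at 30 °C after 72 h for fungi and 48 h for yeast on malt yeast agar (pH 5.5) containing compound at final levels from 500 down to zero ppm. Organisms are grown 7 days at 30 °C, suspended in saline with octylphenoxy polyethoxy ethanol, and diluted 1:9 before replicator inoculation.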

[3] = system: Pseudomonas aeruginosa (Pa); assay: Minimum inhibitory concentration (MIC) in nutrient agar, Pseudomonas aeruginosa; settings: 30° C., 48 hours, read-out: Minimum Inhibitory Concentration, Pa
Procedure, shortened: (§3)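 Test compound, as a 1% acetone–water solution, was mixed into molten nutrient agar (pH 6.8 or pH 8.2) at 48° C to final levels of 500 down to 1.0 ppm. Plates were dried 24 h, spot-inoculated with 10^8 CFU/mL suspensions of 24-h cultures, and incubated 48 h at 30° C. MIC was the lowest level preventing growth.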

[4] = system: Staphylococcus aureus (Sa); assay: Minimum inhibitory concentration (MIC) in nutrient agar, Staphylococcus aureus
Procedure, shortened: as §3

Aspergillus niger (An) = assay: Minimum inhibitory concentration (MIC) in malt yeast agar, Aspergillus niger; settings: pH 5.5; malt yeast agar, 30° C., 72 hours for fungi; read-out: Minimum Inhibitory Concentration, An
Procedure, shortened: as §1

[5] = system: Salmonella choleraesuis (Se); assay: Minimum inhibitory concentration (MIC) in nutrient agar, Salmonella choleraesuis; settings: Salmonella enterica
Procedure, shortened: as §3

Candida albicans (Ca) = assay: Minimum inhibitory concentration (MIC) in malt yeast agar, Candida albicans
Procedure, shortened: as §2

Escherichia coli (Ec) = assay: Minimum inhibitory concentration (MIC) in nutrient agar, Escherichia coli
Procedure, shortened: as §3

[6] = system: Klebsiella pneumoniae (Kp); assay: Minimum inhibitory concentration (MIC) in nutrient agar, Klebsiella pneumoniae
Procedure, shortened: as §3

[7] = system: Aureobasidium pullulan (Ap); assay: Minimum inhibitory concentration (MIC) in malt yeast agar, Aureobasidium pullulan
Procedure, shortened: as §1

[8] = system: Enterobacter aerogenes (Ea); assay: Minimum inhibitory concentration (MIC) in nutrient agar, Enterobacter aerogenes; settings: Klebsiella aerogenes
Procedure, shortened: as §3

Bacillus subtilis (Bs) = assay: Minimum inhibitory concentration (MIC) in nutrient agar, Bacillus subtilis
Procedure, shortened: as §3

[9] = system: Pseudomonas aeruginosa (PRD-10); assay: Minimum inhibitory concentration (MIC) in nutrient agar, Pseudomonas aeruginosa PRD-10
Procedure, shortened: as §3

Proteus vulgaris (Pv) = assay: Minimum inhibitory concentration (MIC) in nutrient agar, Proteus vulgaris
Procedure, shortened: as §3

Trichoderma viride (Tv) = assay: Minimum inhibitory concentration (MIC) in malt yeast agar, Trichoderma viride; settings: pH 5.5; malt yeast agar, 30° C., 72 hours for fungi; read-out: Minimum Inhibitory Concentration, Tv
Procedure, shortened: as §1

[10] = pH 5.5, malt yeast agar, 30° C., 72 hours for fungi, read-out: Minimum Inhibitory Concentration, PC
[11] = 72 h, pH 5.5, read-out: Minimum Inhibitory Concentration, Fo
[12] = 48 h, pH 8.2, read-out: Minimum Inhibitory Concentration, Sa
[13] = pH 6.8, nutrient agar, 30° C., 48 hours, read-out: Minimum Inhibitory Concentration, Sa
[14] = 48 h, pH 6.8, read-out: Minimum Inhibitory Concentration, SC
[15] = 48 h, pH 8.2, read-out: Minimum Inhibitory Concentration, SC
[16] = 48 h, pH 5.5, read-out: Minimum Inhibitory Concentration, Ca
[17] = 48 h, pH 6.8, read-out: Minimum Inhibitory Concentration, Ec
[18] = 48 h, pH 8.2, read-out: Minimum Inhibitory Concentration, Ec
[19] = 48 h, pH 8.2, read-out: Minimum Inhibitory Concentration, Kp
[20] = pH 6.8, nutrient agar, 30° C., 48 hours, read-out: Minimum Inhibitory Concentration, Kp
[21] = pH 5.5, malt yeast agar, 30° C., read-out: Minimum Inhibitory Concentration, Ap
[22] = 48 h, pH 6.8, read-out: Minimum Inhibitory Concentration, Ea
[23] = 48 h, pH 8.2, read-out: Minimum Inhibitory Concentration, Ea
[24] = 48 h, pH 8.2, read-out: Minimum Inhibitory Concentration, Bs
[25] = 48 h, pH 6.8, read-out: Minimum Inhibitory Concentration, PRD
[26] = 48 h, pH 8.2, read-out: Minimum Inhibitory Concentration, PRD
[27] = 48 h, pH 6.8, read-out: Minimum Inhibitory Concentration, Pv
[28] = 48 h, pH 8.2, read-out: Minimum Inhibitory Concentration, Pv
[29] = pH 5.5, malt yeast agar, 30° C., 72 hours for fungi, read-out: Minimum Inhibitory Concentration, Fo
[30] = pH 6.8, nutrient agar, 30° C., 48 hours, read-out: Minimum Inhibitory Concentration, Bs
[31] = pH 8.2, nutrient agar, 30° C., 48 hours, read-out: Minimum Inhibitory Concentration, Sa
[32] = pH 8.2, nutrient agar, 30° C., 48 hours, read-out: Minimum Inhibitory Concentration, Ec
[33] = pH 8.2, nutrient agar, 30° C., 48 hours, read-out: Minimum Inhibitory Concentration, Bs

Row | SMILES | MIC [1, 10] [mg/L] | MIC [2] [mg/L] | MIC ([3]; pH 6.8, nutrient agar) [mg/L] | MIC ([3]; pH 8.2, nutrient agar) [mg/L] | MIC [4, 13] [mg/L] | MIC (Aspergillus niger (An)) [mg/L] | MIC [5, 14] [mg/L] | MIC [5, 15] [mg/L] | MIC (Candida albicans (Ca); [16]) [mg/L] | MIC (Escherichia coli (Ec); [17]) [mg/L] | MIC [6, 19] [mg/L] | MIC [6, 20] [mg/L] | MIC [7, 21] [mg/L] | MIC [8, 22] [mg/L] | MIC [8, 23] [mg/L] | MIC [9, 25] [mg/L] | MIC [9, 26] [mg/L] | MIC (Proteus vulgaris (Pv); [27]) [mg/L] | MIC (Proteus vulgaris (Pv); [28]) [mg/L] | MIC (Trichoderma viride (Tv)) [mg/L] | also measured
1 | COc1ccc(-c2nsnc2SC#N)cc1 [Example VIII, 4-(4-Methoxyphenyl)-3-thiocyanato-1,2,5-thiadiazole] | > 500 | 9 (≈ 36.1 µM) | > 500 | > 500 | > 500 | 100 (≈ 401 µM) | > 500 | > 500 | 25 (≈ 100 µM) | > 500 | > 500 | > 500 | 9 (≈ 36.1 µM) | > 500 | > 500 | > 500 | > 500 | > 500 | > 500 | 9 (≈ 36.1 µM) | MIC (Fusarium oxysporum (Fo); [11]): 50 mg/L (≈ 201 µM); MIC [4, 12]: > 500 mg/L; MIC (Escherichia coli (Ec); [18]): > 500 mg/L; MIC (Bacillus subtilis (Bs); 48 h, pH 6.8, read-out: Minimum Inhibitory Concentration, Bs): 100 mg/L (≈ 401 µM); MIC (Bacillus subtilis (Bs); [24]): > 500 mg/L
2 | N#CSCSc1nsnc1-c1ccc([N+](=O)[O-])cc1 [Example XXIX, 4-(4-Nitrophenyl)-3-thiocyanatomethylthio-1,2,5-thiadiazole] | 9 (≈ 29 µM) | 9 (≈ 29 µM) | 500 (≈ 1610 µM) | > 500 | 500 (≈ 1610 µM) | 9 (≈ 29 µM) | 500 (≈ 1610 µM) | > 500 |  | 500 (≈ 1610 µM) | > 500 | 500 (≈ 1610 µM) | > 500 | 500 (≈ 1610 µM) | > 500 | 500 (≈ 1610 µM) | > 500 | 500 (≈ 1610 µM) | > 500 | 9 (≈ 29 µM) | MIC (Fusarium oxysporum (Fo); [29]): 9 mg/L (≈ 29 µM); MIC [4, 12]: 500 mg/L (≈ 1610 µM); MIC (Candida albicans (Ca); pH 5.5, malt yeast agar, 30° C., 48 hours for yeast, read-out: Minimum Inhibitory Concentration, Ca): 9 mg/L (≈ 29 µM); MIC (Escherichia coli (Ec); [18]): 500 mg/L (≈ 1610 µM); MIC (Bacillus subtilis (Bs); [24]): 500 mg/L (≈ 1610 µM); MIC (Bacillus subtilis (Bs); [30]): 50 mg/L (≈ 161 µM)
3 | N#CSc1nsnc1-c1ccc(F)cc1 [Example V, 4-(4-Fluorophenyl)-3-thiocyanato-1,2,5-thiadiazole] |  | 5 (≈ 21.1 µM) | 100 (≈ 421 µM) | 100 (≈ 421 µM) | 25 (≈ 105 µM) | 5 (≈ 21.1 µM) |  |  | 25 (≈ 105 µM) | 50 (≈ 211 µM) |  | 100 (≈ 421 µM) |  |  | 500 (≈ 2110 µM) |  |  |  |  | 25 (≈ 105 µM) | MIC ([1]; 72 h, pH 5.5, read-out: Minimum Inhibitory Concentration, PC): 2.5 mg/L (≈ 10.5 µM); MIC (Fusarium oxysporum (Fo); [29]): 10 mg/L (≈ 42.1 µM); MIC [4, 31]: 50 mg/L (≈ 211 µM); MIC ([5]; pH 6.8, nutrient agar, 30° C., 48 hours, read-out: Minimum Inhibitory Concentration, SC): 100 mg/L (≈ 421 µM); MIC ([5]; pH 8.2, nutrient agar, 30° C., 48 hours, read-out: Minimum Inhibitory Concentration, SC): 250 mg/L (≈ 1050 µM); MIC (Escherichia coli (Ec); [32]): 250 mg/L (≈ 1050 µM); MIC ([6]; pH 8.2, nutrient agar, 30° C., 48 hours, read-out: Minimum Inhibitory Concentration, Kp): 100 mg/L (≈ 421 µM); MIC ([7]; pH 5.5, read-out: Minimum Inhibitory Concentration, Ap): 2.5 mg/L (≈ 10.5 µM); MIC ([8]; pH 6.8, nutrient agar, 30° C., 48 hours, read-out: Minimum Inhibitory Concentration, Ea): 250 mg/L (≈ 1050 µM); MIC (Bacillus subtilis (Bs); [30]): < 10 mg/L; MIC (Bacillus subtilis (Bs); [33]): 50 mg/L (≈ 211 µM); MIC ([9]; pH 6.8, nutrient agar, 30° C., 48 hours, read-out: Minimum Inhibitory Concentration, PRD): 250 mg/L (≈ 1050 µM); MIC ([9]; pH 8.2, nutrient agar, 30° C., 48 hours, read-out: Minimum Inhibitory Concentration, PRD): 250 mg/L (≈ 1050 µM); MIC (Proteus vulgaris (Pv); pH 6.8, nutrient agar, 30° C., 48 hours, read-out: Minimum Inhibitory Concentration, Pv): 25 mg/L (≈ 105 µM); MIC (Proteus vulgaris (Pv); pH 8.2, nutrient agar, 30° C., 48 hours, read-out: Minimum Inhibitory Concentration, Pv): 100 mg/L (≈ 421 µM)
4 | N#CSCSc1nsnc1-c1ccccc1Cl [Example XX, 4-(2-Chlorophenyl)-3-thiocyanatomethylthio-1,2,5-thiadiazole] | 9 (≈ 30 µM) | 9 (≈ 30 µM) | 500 (≈ 1670 µM) | > 500 | 9 (≈ 30 µM) | 9 (≈ 30 µM) | 500 (≈ 1670 µM) | > 500 | 250 (≈ 834 µM) | 500 (≈ 1670 µM) | > 500 | 500 (≈ 1670 µM) | 9 (≈ 30 µM) | 500 (≈ 1670 µM) | > 500 | 500 (≈ 1670 µM) | > 500 | 500 (≈ 1670 µM) | > 500 | > 500 | MIC (Fusarium oxysporum (Fo); [11]): 25 mg/L (≈ 83.4 µM); MIC [4, 31]: 9 mg/L (≈ 30 µM); MIC (Escherichia coli (Ec); [32]): 250 mg/L (≈ 834 µM); MIC (Bacillus subtilis (Bs); [30]): 9 mg/L (≈ 30 µM); MIC (Bacillus subtilis (Bs); [33]): 9 mg/L (≈ 30 µM)

— patent US5488060A, “Substituted thiadiazoles, compositions containing them and their use as antimicrobial and marine antifouling agents” (The Dow Chemical Company, priority 1994, dated 1996)
